This note sets out measurements from patent US7795254B2, “Benzomorpholine derivatives and methods of use” (Amgen Inc., priority 2007, dated 2010).

Counter-ions that a name gives are not always drawn. Like-named read-outs stand apart in the source and are kept apart here.

Series [1] has as its target KDR (Homo sapiens, UniProt P35968). The series is described as follows: KDR inhibition of metabolites. The series is classed as biochemical. Particulars: metabolites of Compound A.
The nature of series [2]: Exposure (AUC) in the rat corneal angiogenesis study. The series is classed as in vivo. The following applies: female, CD, rat, in vivo. The procedure:
(§1) Tables 2 through 6 below describe the results obtained in the rat corneal in vivo model of angiogenesis for (1) reference compound (free base) 1, (2) Compound A (free base), and (3) the hydrochloride salt of Compound A. A VEGF-induced rat corneal angiogenesis assay was performed using the following procedure: • In Life Aspects: Female CD rats weighing approximately 250 grams were randomized into one of six treatment groups. On the day of surgery the rats were temporarily anesthetized using isoflurane. A vertical incision was made on the midline of the cornea and a pocket was created to separate the connective tissue layers of the stroma. The distance between the apex of the pocket and the limbus was approximately 1.8 mm. A presoaked nylon filter disk was inserted to the apex of the pocket (in the case of the control treatment group, the disks were soaked in a buffer containing bovine serum albumin; in the remaining treatment groups, the disks were soaked in buffer containing bovine serum albumin plus human VEGF to induce angiogenesis). The different treatment groups were then dosed daily with either vehicle (Ora Plus™, a commercially available vehicle) or a designated amount of test compound formulated in vehicle. • Study Termination and Analysis: After seven days, the rats were euthanized and the implanted corneas photographed using a Nikon SV-3 Ophthalmic Slit Lamp. Numerical data were generated from the digital images using the Metamorph image analysis system (Universal Imaging). Three endpoints were analyzed on each corneal image: (1) disk placement distance from the limbus, (2) number of vessels intersecting a perpendicular line at the midpoint of the disk placement distance, and (3) blood vessel area, as determined by thresholding and automated pixel counting. Only the number of blood vessels is shown in the tables as this endpoint correlated well with the blood vessel area. • Statistical Analysis: Results were analyzed with the StatView statistical program using one-way ANOVA, followed by Fisher's least significant difference test. Data are presented as mean±SE and P<0.05 was considered significant. AUC and ED50 values were calculated using methods well known in the art.

In series [3] the test system is Human Liver Microsome. The series is described as follows: Human liver microsome clearance. The following applies: human liver microsomes. The series is classed as in vitro ADME. An excerpt:
(§2) Table 7 provides additional information about the pharmacokinetic profiles of reference compound 1 and Compound A. The data contained in this table was obtained using methods well known in the art.

Series [4] concerns Rat Liver Microsome. The series is described as follows: Rat liver microsome clearance. Particulars: rat liver microsomes. The series is classed as in vitro ADME.
Source text: as §2

Series [5] is described as follows: Rat pharmacokinetic profile. Particulars: in vivo.
Source text: as §2

For series [6], the system named is VEGF-induced rat corneal angiogenesis. As to the kind of experiment: VEGF-induced rat corneal angiogenesis assay. The series is classed as in vivo. The following applies: for Average # of Vessels: 7 days. The procedure:
as §1

Series [7] concerns HUVEC. As to the kind of experiment: VEGF induced proliferation, HUVEC cell-based assay. The following applies: Homo sapiens.
A short description of series [8]: Water absorption of the hydrous hydrochloride form. The series is classed as physicochemical. Particulars: 90% relative humidity and 25° C. An excerpt:
The hydrochloride salt is formed by preparing a solution of Compound A free base in ethanol and adding hydrochloric acid in slight molar excess with stirring and optional heat. Spontaneous salt formation occurred both with and without the application of heating and cooling. The hydrochloride salt is known to exist in at least one anhydrous form, which has been confirmed by single-crystal X-ray analysis, and at least one hydrous form. The anhydrous form of the hydrochloride salt is crystalline and decomposes near 230° C. when heated at a rate of 10° C./minute. The hydrous form of Compound A hydrochloride has been obtained by suspending the anhydrous hydrochloride material in water or in dilute aqueous solutions of hydrochloric acid. The hydrous material is crystalline, can freely absorb up to 4 molar equivalents of water at 90% relative humidity and 25° C., and appears to fully dehydrate by 150° C. and decompose near 170° C. when heated at a rate of 10° C./minute. Both the anhydrous and hydrous forms of Compound A hydrochloride have unique X-ray powder diffraction patterns, the major peaks of which are described below: […]

Sequence of KDR (P35968 20-1356, species assumed): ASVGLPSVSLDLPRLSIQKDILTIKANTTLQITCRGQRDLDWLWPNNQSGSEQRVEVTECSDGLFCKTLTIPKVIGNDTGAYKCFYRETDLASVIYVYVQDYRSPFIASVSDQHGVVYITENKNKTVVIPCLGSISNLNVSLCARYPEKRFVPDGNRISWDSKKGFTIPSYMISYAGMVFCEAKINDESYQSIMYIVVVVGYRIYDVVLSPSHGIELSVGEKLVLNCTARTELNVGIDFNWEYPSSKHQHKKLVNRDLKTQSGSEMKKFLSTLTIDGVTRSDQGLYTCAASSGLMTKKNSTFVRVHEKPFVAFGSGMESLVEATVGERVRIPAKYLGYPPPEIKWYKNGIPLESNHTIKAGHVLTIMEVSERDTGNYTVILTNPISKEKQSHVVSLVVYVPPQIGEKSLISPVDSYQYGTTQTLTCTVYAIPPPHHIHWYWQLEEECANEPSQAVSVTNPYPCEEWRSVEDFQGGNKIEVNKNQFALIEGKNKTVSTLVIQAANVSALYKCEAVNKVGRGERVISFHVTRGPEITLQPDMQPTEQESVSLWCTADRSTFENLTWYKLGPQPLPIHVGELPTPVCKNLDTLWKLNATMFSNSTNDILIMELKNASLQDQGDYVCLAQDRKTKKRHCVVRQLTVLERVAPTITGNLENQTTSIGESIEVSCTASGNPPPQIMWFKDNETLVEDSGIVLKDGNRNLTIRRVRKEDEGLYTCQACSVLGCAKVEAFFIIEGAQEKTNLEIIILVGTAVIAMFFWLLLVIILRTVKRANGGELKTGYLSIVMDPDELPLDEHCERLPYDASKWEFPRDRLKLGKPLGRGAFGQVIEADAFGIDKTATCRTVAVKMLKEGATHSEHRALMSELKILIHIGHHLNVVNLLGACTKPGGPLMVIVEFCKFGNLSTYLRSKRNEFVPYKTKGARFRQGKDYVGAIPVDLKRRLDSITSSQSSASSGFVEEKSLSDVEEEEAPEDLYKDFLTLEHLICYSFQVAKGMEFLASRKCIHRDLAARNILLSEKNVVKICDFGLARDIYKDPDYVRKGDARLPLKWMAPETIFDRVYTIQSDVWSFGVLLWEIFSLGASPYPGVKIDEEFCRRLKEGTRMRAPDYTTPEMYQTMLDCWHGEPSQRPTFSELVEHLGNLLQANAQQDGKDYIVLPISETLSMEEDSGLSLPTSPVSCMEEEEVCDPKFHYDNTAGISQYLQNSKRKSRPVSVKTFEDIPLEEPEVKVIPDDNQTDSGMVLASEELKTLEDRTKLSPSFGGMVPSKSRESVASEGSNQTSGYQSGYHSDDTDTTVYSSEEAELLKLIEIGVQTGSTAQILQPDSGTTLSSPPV

As to `COc1cc2nccc(Oc3ccc4c(c3)OCCN4C(=O)Nc3cc(CO)on3)c2cc1OC` [7-(6,7-dimethoxyquinolin-4-yloxy)-N-(5-(hydroxymethyl)isoxazol-3-yl)-2,3-dihydrobenzo[b][1,4]oxazine-4-carboxamide hydrochloride], the IC50 in series [1] worked out at 1.04 nM.
Take `COc1cc2nccc(Oc3ccc4c(c3)OCCN4C(=O)Nc3cc(C)on3)c2cc1O` [7-(6-hydroxy-7-methoxyquinolin-4-yloxy)-N-(5-methylisoxazol-3-yl)-2,3-dihydrobenzo[b][1,4]oxazine-4-carboxamide]: the IC50 in series [1] is 1.68 nM.
Consider `COc1cc2nccc(Oc3ccc4c(c3)OCCN4C(=O)Nc3ccon3)c2cc1OC` [Reference Compound 1, reference compound], for which the area under the curve (AUC) in series [2] (oral, 0.03 mg/kg, Table 2, free base, 0.03 mg/kg daily) turned out to be 22.5 ng·h/mL; in series [2] (oral, 0.1 mg/kg, Table 2, free base, 0.1 mg/kg daily), 68.5 ng·h/mL; in series [2] (oral, 0.3 mg/kg, Table 2, free base, 0.3 mg/kg daily), 205 ng·h/mL. In addition, the “Human Liver Microsome” value in series [3] was found to be 29 µL/min/mg. Moreover, the “Rat Liver Microsome” value in series [4] came to 65 µL/min/mg. Further, in series [5] (intravenous), the clearance is 13.3 mL/min/kg. In addition, the Vd in series [5] (intravenous, read-out: Rat Volume of Distribution) worked out at 1 L/kg. Besides, the half-life was 284 min in series [5] (iv, I.V., read-out: Rat I.V. T1/2 (converted)) and 144 min in series [5] (po, 2 mpk, P.O., read-out: Rat P.O. T1/2 (converted)). Also, the bioavailability in series [5] (po, 2 mg/kg, P.O., 2 mpk, read-out: Rat P.O. (2 mpk) % F) was determined as 67%. Moreover, the AUC(0-inf) in series [5] (po, 2 mg/kg, P.O., 2 mpk, read-out: Rat P.O. (2 mpk) AUC0-inf) was determined as 1710 ng·h/mL. In series [5] (po, 2 mg/kg, P.O., 2 mpk, read-out: Rat P.O. (2 mpk) AUC0-t), the AUC(0-t) was found to be 1700 ng·h/mL. Moreover, the ED50 in series [6] (Rattus norvegicus, Table 2, free base, number of vessels, read-out: ED50) is over 0.3 mg/kg; in series [6] (free base, review of Tables 2 and 3) it was over 0.3 mpk. Further, the “Average # of Vessels” value was determined as 22.0 in series [6] (Table 2, free base, VEGF disc + 0.01 mg/kg daily); 25.4 in series [6] (Table 2, free base, VEGF disc + 0.03 mg/kg daily); 19.3 in series [6] (Table 2, free base, VEGF disc + 0.1 mg/kg daily); 15.9 in series [6] (Table 2, free base, VEGF disc + 0.3 mg/kg daily). Besides, the IC50 in series [7] was found to be 7 nM.
Consider `COc1cc2c(Oc3ccc4c(c3)OCCN4C(=O)Nc3cc(C)on3)cc[n+]([O-])c2cc1OC` [Compound A N-oxide], for which, in series [1], the IC50 is 5000 nM.
The same measure, in the same setting: in the case of `COc1cc2c(Oc3ccc4c(c3)OCCN4C(=O)Nc3cc(C)on3)ccnc2cc1O` [7-(7-hydroxy-6-methoxyquinolin-4-yloxy)-N-(5-methylisoxazol-3-yl)-2,3-dihydrobenzo[b][1,4]oxazine-4-carboxamide] it was 777 nM.
Regarding `COc1cc2nccc(Oc3ccc4c(c3)OCCN4C(=O)Nc3cc(C)on3)c2cc1OC` [Compound A (HCl Salt)], the AUC in series [2] (0.01 mg/kg, Table 5, HCl salt Run #2, 0.01 mg/kg daily) was 95.8 ng·h/mL; in series [2] (0.03 mg/kg, Table 4, HCl salt Run # 1, 0.03 mg/kg daily), 162 ng·h/mL; in series [2] (0.03 mg/kg, Table 5, HCl salt Run #2, 0.03 mg/kg daily) it was 272 ng·h/mL; in series [2] (0.1 mg/kg, Table 4, HCl salt Run # 1, 0.1 mg/kg daily) it was 460 ng·h/mL; in series [2] (0.1 mg/kg, Table 5, HCl salt Run #2, 0.1 mg/kg daily), 954 ng·h/mL; in series [2] (0.3 mg/kg, Table 4, HCl salt Run # 1, 0.3 mg/kg daily), 1190 ng·h/mL. For the same compound, the AUC came out at 3900 ng·h/mL in series [2] (0.3 mg/kg, Table 5, HCl salt Run #2, 0.3 mg/kg daily); 3640 ng·h/mL in series [2] (1 mg/kg, Table 4, HCl salt Run # 1, 1.0 mg/kg daily); 21.8 ng·h/mL in series [2] (oral, 0.01 mg/kg, Table 6, HCl salt Run #3, 0.01 mg/kg daily); 80.2 ng·h/mL in series [2] (oral, 0.03 mg/kg, Table 6, HCl salt Run #3, 0.03 mg/kg daily); 322 ng·h/mL in series [2] (oral, 0.1 mg/kg, Table 6, HCl salt Run #3, 0.1 mg/kg daily); 677 ng·h/mL in series [2] (oral, 0.3 mg/kg, Table 6, HCl salt Run #3, 0.3 mg/kg daily). The ED50 in series [6] (Rattus norvegicus, Table 4, HCl salt Run # 1, number of vessels, read-out: ED50) worked out at 0.04 mg/kg; in series [6] (Rattus norvegicus, Table 5, HCl salt Run #2, number of vessels, read-out: ED50), 0.15 mg/kg. Also, the “Average # of Vessels” value in series [6] (Table 4, HCl salt Run # 1, VEGF disc + 0.03 mg/kg daily) is 15.3; in series [6] (Table 4, HCl salt Run # 1, VEGF disc + 0.1 mg/kg daily), 9.3; in series [6] (Table 4, HCl salt Run # 1, VEGF disc + 0.3 mg/kg daily), 4.3; in series [6] (Table 4, HCl salt Run # 1, VEGF disc + 1.0 mg/kg daily) it was 0.4; in series [6] (Table 5, HCl salt Run #2, VEGF disc + 0.01 mg/kg daily), 28.9; in series [6] (Table 5, HCl salt Run #2, VEGF disc + 0.03 mg/kg daily), 25.5. Also, the “Average # of Vessels” value is 18.0 in series [6] (Table 5, HCl salt Run #2, VEGF disc + 0.1 mg/kg daily); 7.3 in series [6] (Table 5, HCl salt Run #2, VEGF disc + 0.3 mg/kg daily); 28.4 in series [6] (Table 6, HCl salt Run #3, VEGF disc + 0.01 mg/kg daily); 32.0 in series [6] (Table 6, HCl salt Run #3, VEGF disc + 0.03 mg/kg daily); 15.4 in series [6] (Table 6, HCl salt Run #3, VEGF disc + 0.1 mg/kg daily); 4.8 in series [6] (Table 6, HCl salt Run #3, VEGF disc + 0.3 mg/kg daily). Further, the water absorbed entry in series [8] was “up to 4 molar equivalents of water”.
